Earlier results, collected in patent US20250262182A1, “Beverage Composition and Process” (priority 2020, published 2025).
Read-outs that look alike come from different tables or passages of the source.

Q: What does the source list for `NC(=O)NCCC[C@H](N)C(=O)O` [L-citrulline]?
A: Adverse effects (dosages in the range of 6 g to 10 g): mild gastrointestinal upset; Adverse effects (dosages in the range of 10 g to 15 g): stomach discomfort, bloating, or diarrhea; Adverse effects (dosages over 20 g): electrolyte imbalance and/or headaches; Tolerability (dosages up to 6 g, most people): generally well tolerated
